≈ marks a conversion by molar mass, not a printed value.
Columns and labels:
Type in all cases: physicochemical
[1] = Solubility in water (saturated solution / solubility limit); settings: for dissolution (in words): 0.1 g urea in 99.9 g water, shaken 1-2 h; for solubility thermodynamic: saturated solution in distilled water, solids filtered off, read-out: Concentration of saturated solution
Description: (§1) A series of aqueous solutions of various concentrations of n-octylurea [Pfaltz & Bauer] was prepared by placing the urea into water and shaking the mixture for 1-2 h. All of the urea dissolved in the low concentration samples. Undissolved urea in some of the higher concentration samples was remove by filtration. Surface tensions of these solutions were measured using the Wilheimy plate technique. This method provides equilibrium surface tension values. Equilibrium values are always equal to or lower than those obtained under dynamic conditions.
(§2) A saturated solution in distilled water of N,N'-di-n-butylurea was prepared by placing 0.1 g of the urea into 99.9 g of water and shaking the mixture for 1-2 h. […] The solids were removed by filtration, and the dynamic surface tension of the resulting solution was measured using the maximum bubble pressure method at bubble rates from 0.1 to 20 b/s. […] In practical terms, high bubble rates correspond to high printing speeds in lithographic or ink-jet printing, high spray or roller velocities in coating applications, and rapid application rates for agricultural products.
A saturated solution in distilled water of N,N-di-(2-ethylhexyl)urea was prepared by placing 0.1 g of the urea into 99.9 g of water and shaking the mixture for 1-2 h. […] The solids were removed by filtration, and the surface tension of the resulting solution was measured as described above.
Similarly, a saturated solution in distilled water of N,N-di-n-octylurea was prepared by placing 0.1 g of the urea into 99.9 g of water and shaking the mixture for 1-2 hr. […] The solids were removed by filtration, and the surface tension of the resulting solution was measured as described above.
A saturated solution in distilled water of N,N-di-n-hexylurea was prepared by placing 0.1 g of the urea into 99.9 g of water and shaking the mixture for 1-2 h. […] The solids were removed by filtration, and the surface tension of the resulting solution was measured as described above.

[2] = Dynamic surface tension of aqueous solutions, maximum-bubble-pressure method; settings: for Dynamic Surface Tension: about 23° C.; for Surface tension reduction (in words): summary of dynamic surface tension data
Description: This invention relates to the use of compounds of the formula [drawing 3] where R1 and R2 are independently C1 to C6 alkyl or cycloalkyl with the total number of carbons in R and R' being 6-12 for the reduction of equilibrium and dynamic surface tension in water-based formulations containing an organic compound, particularly coating, ink, and agricultural formulations. […] The maximum-bubble-pressure method of measuring surface tension is described in Langmuir 1986, 2, 428-432, which is incorporated by reference.
In the following examples dynamic surface tension data were generated for aqueous solutions of the indicated compounds using the maximum-bubble-pressure method at the indicated bubble rates, i.e., bubbles/second (b/s), and room temperature of about 23° C. The equipment used was a Kruss BP 2 bubble pressure tensiometer.
as §2
Aqueous solutions of N,N-dibutylurea were prepared and their surface tensions were measured using the procedure described above.

[3] = Foaming properties of 0.1 wt % solution, procedure based upon ASTM D 1173-53
Description: The foaming properties of a 0.1 wt % solution of N,N-dibutylurea, N,N-dipentyl-urea, and N,N-dihexylurea were examined using a procedure based upon ASTM D 1173-53. In this test, a 0.1 wt % solution of the surfactant is added from an elevated foam pipette to a foam receiver containing the same solution. The foam height is measured at the completion of the addition ("Initial Foam Height") and the time required for the foam to dissipate is recorded ("Time to 0 Foam"). This test provides a comparison between the foaming characteristics of various surfactant solutions. In general, in coatings, inks, and agricultural formulations, foam is undesirable because is complicates handling and can lead to coating and print defects, and to inefficient application of agricultural materials.

[4] = Equilibrium surface tension of aqueous solutions, Wilhelmy plate technique
Description: as §1

In the case of `CCCCNC(=O)NCCCC` [N,N'-Di-n-butylurea, N,N'-di-n-butylurea, reference compound], the “dissolution (in words)” value [1] is reported as “Most of the N,N'-di-n-butylurea remained undissolved”, the solubility thermodynamic [1] is reported as under 1000 µg/mL and the “Dynamic Surface Tension” value ([2]; saturated (<0.1 wt %), 0.1 b/s) is reported as 59.0 dyne/cm. The “Dynamic Surface Tension” value ([2]; saturated (<0.1 wt %), 1 b/s) was 59.6 dyne/cm, the “Dynamic Surface Tension” value ([2]; saturated (<0.1 wt %), 6 b/s) was 60.2 dyne/cm and the “Dynamic Surface Tension” value ([2]; saturated (<0.1 wt %), 15 b/s) was 60.6 dyne/cm. For the same molecule, the “Dynamic Surface Tension” value ([2]; saturated (<0.1 wt %), 20 b/s) was 60.9 dyne/cm.
With `CCCCC(CC)CN(CC(CC)CCCC)C(N)=O` (stereo not shown) [N,N-Di-(2-ethylhexyl)urea, N,N-di-(2-ethylhexyl)urea, reference compound] the “dissolution (in words)” value [1] was “Most of the urea remained undissolved”, the solubility thermodynamic [1] was under 1000 µg/mL and the “Dynamic Surface Tension” value ([2]; saturated (<0.1 wt %), 0.1 b/s) was 60.1 dyne/cm. The “Dynamic Surface Tension” value ([2]; saturated (<0.1 wt %), 1 b/s) was 69.2 dyne/cm, the “Dynamic Surface Tension” value ([2]; saturated (<0.1 wt %), 6 b/s) was 69.6 dyne/cm and the “Dynamic Surface Tension” value ([2]; saturated (<0.1 wt %), 15 b/s) was 69.3 dyne/cm. The “Dynamic Surface Tension” value ([2]; saturated (<0.1 wt %), 20 b/s) was 68.1 dyne/cm.
For `CCCCCCN(CCCCCC)C(N)=O` [N,N-Di-n-hexylurea, N,N-di-n-hexylurea], the “dissolution (in words)” value [1] was “Most of the N,N-di-n-hexylurea remained undissolved”, the solubility thermodynamic [1] was under 1000 µg/mL and the “Initial Foam Height” value [3] was 1.0 cm. For the same molecule, the “Time to 0 Foam” value [3] was 2 s, the “Dynamic Surface Tension” value ([2]; saturated (<0.1 wt %), 0.1 b/s) was 34.7 dyne/cm and the “Dynamic Surface Tension” value ([2]; saturated (<0.1 wt %), 1 b/s) was 42.8 dyne/cm. For the same molecule, the “Dynamic Surface Tension” value ([2]; saturated (<0.1 wt %), 6 b/s) was 56.8 dyne/cm, the “Dynamic Surface Tension” value ([2]; saturated (<0.1 wt %), 15 b/s) was 63.7 dyne/cm and the “Dynamic Surface Tension” value ([2]; saturated (<0.1 wt %), 20 b/s) was 62.4 dyne/cm.
In the case of `CCCCCCCCN(CCCCCCCC)C(N)=O` [N,N-Di-n-octylurea, N,N-di-n-octylurea, reference compound], the “dissolution (in words)” value [1] is reported as “Most of the urea remained undissolved”, the solubility thermodynamic [1] is reported as under 1000 µg/mL and the “Dynamic Surface Tension” value ([2]; saturated (<0.1 wt %), 0.1 b/s) is reported as 52.9 dyne/cm. For the same molecule, the “Dynamic Surface Tension” value ([2]; saturated (<0.1 wt %), 1 b/s) was 69.8 dyne/cm, the “Dynamic Surface Tension” value ([2]; saturated (<0.1 wt %), 6 b/s) was 71.1 dyne/cm and the “Dynamic Surface Tension” value ([2]; saturated (<0.1 wt %), 15 b/s) was 70.3 dyne/cm. For the same molecule, the “Dynamic Surface Tension” value ([2]; saturated (<0.1 wt %), 20 b/s) was 69.4 dyne/cm.
For `CCCN(CCC)C(N)=O` [N,N-Di-n-propylurea, N,N-di-n-propylurea], the “Dynamic Surface Tension” value ([2]; 0.5 wt %, 0.1 b/s) was 53.8 dyne/cm, the “Dynamic Surface Tension” value ([2]; 0.5 wt %, 1 b/s) was 54.0 dyne/cm and the “Dynamic Surface Tension” value ([2]; 0.5 wt %, 6 b/s) was 54.3 dyne/cm. The “Dynamic Surface Tension” value ([2]; 0.5 wt %, 15 b/s) was 53.8 dyne/cm, the “Dynamic Surface Tension” value ([2]; 0.5 wt %, 20 b/s) was 53.7 dyne/cm and the “Dynamic Surface Tension” value ([2]; 2.0 wt %, 0.1 b/s) was 43.4 dyne/cm. For the same molecule, the “Dynamic Surface Tension” value ([2]; 2.0 wt %, 1 b/s) was 43.6 dyne/cm, the “Dynamic Surface Tension” value ([2]; 2.0 wt %, 6 b/s) was 43.9 dyne/cm and the “Dynamic Surface Tension” value ([2]; 2.0 wt %, 15 b/s) was 44.4 dyne/cm. The “Dynamic Surface Tension” value ([2]; 2.0 wt %, 20 b/s) was 44.5 dyne/cm, the “Dynamic Surface Tension” value ([2]; 4.0 wt %, 0.1 b/s) was 39.0 dyne/cm and the “Dynamic Surface Tension” value ([2]; 4.0 wt %, 1 b/s) was 39.1 dyne/cm. The “Dynamic Surface Tension” value ([2]; 4.0 wt %, 6 b/s) was 39.3 dyne/cm, the “Dynamic Surface Tension” value ([2]; 4.0 wt %, 15 b/s) was 39.5 dyne/cm and the “Dynamic Surface Tension” value ([2]; 4.0 wt %, 20 b/s) was 39.6 dyne/cm. The “Surface tension reduction (in words)” value [2] was “reasonably effective at reducing the surface tension of water”.
With `CCCCN(CCCC)C(N)=O` [N,N-Dibutylurea, N,N-dibutylurea] the “Initial Foam Height” value [3] was 3.0 cm, the “Time to 0 Foam” value [3] was 5 s and the “Dynamic Surface Tension” value ([2]; 0.3 wt %, 0.1 b/s) was 42.9 dyne/cm. The “Dynamic Surface Tension” value ([2]; 0.3 wt %, 1 b/s) was 43.1 dyne/cm, the “Dynamic Surface Tension” value ([2]; 0.3 wt %, 6 b/s) was 43.4 dyne/cm and the “Dynamic Surface Tension” value ([2]; 0.3 wt %, 15 b/s) was 43.4 dyne/cm. For the same molecule, the “Dynamic Surface Tension” value ([2]; 0.3 wt %, 20 b/s) was 43.6 dyne/cm, the “Dynamic Surface Tension” value ([2]; 1.0 wt %, 0.1 b/s) was 32.7 dyne/cm and the “Dynamic Surface Tension” value ([2]; 1.0 wt %, 1 b/s) was 32.9 dyne/cm. The “Dynamic Surface Tension” value ([2]; 1.0 wt %, 6 b/s) was 33.2 dyne/cm, the “Dynamic Surface Tension” value ([2]; 1.0 wt %, 15 b/s) was 33.8 dyne/cm and the “Dynamic Surface Tension” value ([2]; 1.0 wt %, 20 b/s) was 34.1 dyne/cm. The “Dynamic Surface Tension” value ([2]; 1.5 wt %, 0.1 b/s) was 28.2 dyne/cm, the “Dynamic Surface Tension” value ([2]; 1.5 wt %, 1 b/s) was 28.3 dyne/cm and the “Dynamic Surface Tension” value ([2]; 1.5 wt %, 6 b/s) was 28.5 dyne/cm. The “Dynamic Surface Tension” value ([2]; 1.5 wt %, 15 b/s) was 29.1 dyne/cm, the “Dynamic Surface Tension” value ([2]; 1.5 wt %, 20 b/s) was 29.5 dyne/cm and the “Dynamic Surface Tension” value ([2]; 1.5 wt %, 20 b/s, listed as N,N-dibutylurea) was “below 30 dyne/cm”. For the same molecule, the “Surface tension reduction (in words)” value [2] was “highly effective at reducing the surface tension of water”.
`CCCCCCCCNC(N)=O` [N-Octylurea, n-octylurea] showed an Equilibrium surface tension ([4]; 0.0001 wt % in water) of 72.2 dyne/cm, an Equilibrium surface tension ([4]; 0.0005 wt % in water) of 72.1 dyne/cm and an Equilibrium surface tension ([4]; 0.001 wt % in water) of 72.0 dyne/cm. It also gave an Equilibrium surface tension ([4]; 0.003 wt % in water) of 68.9 dyne/cm, an Equilibrium surface tension ([4]; 0.005 wt % in water) of 62.4 dyne/cm and an Equilibrium surface tension ([4]; 0.007 wt % in water) of 60.0 dyne/cm. The Equilibrium surface tension ([4]; 0.009 wt % in water) was 57.0 dyne/cm, the Equilibrium surface tension ([4]; 0.015 wt % in water) was 57.1 dyne/cm and the Equilibrium surface tension ([4]; 0.03 wt % in water) was 55.5 dyne/cm. The Equilibrium surface tension ([4]; 0.06 wt % in water) was 57.1 dyne/cm, the “lowest surface tension which can be obtained for an aqueous solution” value ([4]; limiting value from Table 1 data) was “about 56 dyne/cm” and the solubility ([1]; in water) was 100 µg/mL (≈ 0.58 mM).
With `CN(C(N)=O)C1CCCCC1` [N-cyclohexyl-N-methylurea] the “Dynamic Surface Tension” value ([2]; 1.0 wt %, 0.1 b/s) was 51.9 dyne/cm, the “Dynamic Surface Tension” value ([2]; 1.0 wt %, 1 b/s) was 52.4 dyne/cm and the “Dynamic Surface Tension” value ([2]; 1.0 wt %, 6 b/s) was 52.9 dyne/cm. For the same molecule, the “Dynamic Surface Tension” value ([2]; 1.0 wt %, 15 b/s) was 53.2 dyne/cm, the “Dynamic Surface Tension” value ([2]; 1.0 wt %, 20 b/s) was 53.2 dyne/cm and the “Dynamic Surface Tension” value ([2]; 2.5 wt %, 0.1 b/s) was 44.1 dyne/cm. The “Dynamic Surface Tension” value ([2]; 2.5 wt %, 1 b/s) was 44.6 dyne/cm, the “Dynamic Surface Tension” value ([2]; 2.5 wt %, 6 b/s) was 45.1 dyne/cm and the “Dynamic Surface Tension” value ([2]; 2.5 wt %, 15 b/s) was 45.6 dyne/cm. For the same molecule, the “Dynamic Surface Tension” value ([2]; 2.5 wt %, 20 b/s) was 45.8 dyne/cm and the “Surface tension reduction (in words)” value [2] was “reasonably effective at reducing the surface tension of water”.
